Experimental data as given in paper PMC8406801, “Naringenin Inhibits Platelet Activation and Arterial Thrombosis Through Inhibition of Phosphoinositide 3-Kinase and Cyclic Nucleotide Signaling” (Frontiers in Pharmacology, 2021).
Where “and” joins values, the source holds several entries; their conditions need not be identical. Equal values may be shown once.

How the values were obtained:
[1] = system: Akt Ser473 phosphorylation; assay: Immunoblotting of phospho-Akt (Ser473) in ADP-stimulated washed platelets; assay type: cell-based, rat; conditions: single replicates; for p-Akt Ser473 / t-Akt: raw data
Protocol: (§1) For in vitro platelet aggregation, aliquots of washed platelets were preincubated with vehicle or various concentrations of naringenin for 5 min and stimulated with ADP (10 μmol/L) under stirring at 37°C for 5 min. For ex vivo platelet aggregation, PRP was incubated at 37°C for 5 min and stimulated with ADP (5 μmol/L) under stirring at 37 °C. The platelet aggregation was terminated by adding ethylenediaminetetraacetic acid (EDTA; 10 mM). Total protein was prepared using RIPA lysis buffer and protein content was determined by bicinchoninic acid (BCA) protein assay kit. Equal amounts of platelet proteins (30 μg) were separated on 10% SDS polyacrylamide gel electrophoresis (SDS-PAGE) and then transferred to poly vinylidene difluoride (PVDF) membranes and subjected to western blot. Blots were blocked with TBS-Tween 20 containing 5% BSA and probed with primary antibodies diluted in blocking solution at 4°C overnight followed by incubation with the corresponding HRP secondary antibodies. The protein bands were visualized using enhanced chemiluminescence (ECL).
FIGURE 4 Naringenin inhibits PI3K-mediated signaling in ADP-induced platelets. Washed rat platelets were preincubated without or with naringenin at 37°C for 5 min, and then stimulated with ADP (10 μmol/L) under stirring for 5 min. Platelet proteins were then extracted and analyzed by immunoblotting using PI3Kp110β antibody (A) and phospho-specific antibodies such as Akt^Ser473 (B), Akt^Thr308 (C), ERK1/2^Thr202/Tyr204 (D) and GSK3β^Ser9 (E). Total level of GAPDH was measured on each sample as a loading control. The blots shown are representative of three separate experiments. The relative protein expression levels were quantified by ImageJ 1.47v software. The level of relative protein expression obtained with vehicle control (0 μM) was taken as 1. R represents the level of relative protein expression in resting platelets. Data are expressed as means ± SD (n = 3). *p < 0.05, **p < 0.01, ***p < 0.001 compared with the vehicle control group.
FIGURE 5 Effects of naringenin combined with PI3K pan inhibitor LY294002 on platelet aggregation and Akt phosphorylation. Washed rat platelets were preincubated with naringenin (200 μmol/L) alone, the PI3K pan inhibitor LY294002 (5 μmol/L) alone or both for 5 min prior to ADP (10 μmol/L) activation. After stimulation with ADP, platelet aggregation was quantified and expressed as a percentage (A). Data are expressed as means ± SD (n = 6). ***p < 0.001 compared with the ADP-treated group, ^### p < 0.001 compared with naringenin alone or LY294002 alone. Platelet proteins were then extracted and specific antibodies were used to measure the level of total and phosphorylated Akt (B). The blots shown are representative of three separate experiments. The relative protein expression levels were quantified by ImageJ 1.47v software. The level of phosphorylation obtained in the ADP-treated group was taken as 1. Data are expressed as means ± SD (n = 3). ***p < 0.001 compared with the ADP-treated group, ^### p < 0.001 compared with naringenin alone or LY294002 alone.

[2] = system: VASP Ser239 phosphorylation; assay: Immunoblotting of phospho-VASP (Ser239) in ADP-stimulated washed platelets, with or without PKA, PKG, PKC inhibitors; assay type: cell-based, rat; conditions: for p-VASP(Ser239) / GAPDH (Fold to ADP only) / p-VASP(Ser239) / GAPDH (raw data): ADP-stimulated, Figure 7C
Protocol: as §1
VASP is a substrate for cAMP- and cGMP- dependent protein kinases, which mediate cAMP- and cGMP-dependent inhibitory signaling in platelets, respectively. Increased cAMP levels followed by the activation of cAMP-dependent protein kinase A (PKA) phosphorylates VASP at position Ser157, whereas the elevation of cGMP leads to VASP phosphorylation at position Ser239 by cGMP-dependent protein kinase G (PKG) ([Aszódi et al., 1999]; [Li et al., 2003a]). To further examine whether naringenin modulates cAMP- or cGMP-mediated inhibitory signaling, the phosphorylation of VASP (Ser157 and Ser239) in washed platelets on stimulation with ADP were measured in the absence or presence of naringenin (100, 200, 400, and 800 μM). […] To further confirm the antiplatelet effects of naringenin through PKA-dependent signaling, the effects of naringenin on platelet aggregation were measured in the presence of PKG inhibitor (Rp-8-Br-PET-cGMPS) and PKA inhibitor (H89).
FIGURE 7 Naringenin promotes VASP phosphorylation. The effects of naringenin on phosphorylation of VASP (at positions Ser 157 and Ser239) were measured in washed platelets upon stimulation with ADP (10 μmol/L) by western blotting (A). The blots shown are representative of three separate experiments. The phosphorylation levels were quantified by ImageJ 1.47v software. The level of phosphorylation obtained with vehicle control (0 μM) was taken as 1 (B,C). R represents the phosphorylation level in resting platelets. Data are expressed as means ± SD (n = 3). *p < 0.05, ***p < 0.001 compared with the vehicle control group. VASP phosphorylation at Ser239 was also analyzed in washed platelets incubated with 5 μmol/L PKA (H89), 30 μmol/L PKG (Rp-8-Br-PET-cGMPS), or 5 μmol/L PKC (GF109203X) inhibitors before treatment with naringenin (D). Washed platelets were incubated with vehicle or naringenin (200 μmol/L) at 37°C in the presence or absence of 5 μmol/L PKA (H89) or 30 μmol/L PKG (Rp-8-Br-PET-cGMPS) inhibitors. After treatment, platelets were stimulated with ADP (10 μmol/L) to trigger aggregation (E). Data are expressed as means ± SD (n = 6). ***p < 0.001 compared with the ADP-treated group, ^# p < 0.05, ^### p < 0.001 compared with naringenin alone or H89 alone.

[3] = Figure 5B: ADP 10 μM, naringenin 200 μM alone

With `O=C1C[C@@H](c2ccc(O)cc2)Oc2cc(O)cc(O)c21` [Naringenin] the “p-Akt Ser473 / t-Akt” value ([1]; ADP 10 μmol/L, 100 μM) was 0.1822 and 0.1825 and 0.1171, the “p-Akt Ser473 / t-Akt (Fold to ADP only)” value ([1]; ADP 10 μmol/L, 100 μM) was 0.4309 Fold to ADP only and 0.4315 Fold to ADP only and 0.2769 Fold to ADP only and the “p-Akt Ser473 / t-Akt” value ([1]; ADP 10 μmol/L, 200 μM) was 0.1611 and 0.1671 and 0.0697. For the same molecule, the “p-Akt Ser473 / t-Akt (Fold to ADP only)” value ([1]; ADP 10 μmol/L, 200 μM) was 0.3810 Fold to ADP only and 0.3953 Fold to ADP only and 0.1648 Fold to ADP only, the “p-Akt Ser473 / t-Akt” value ([1]; ADP 10 μmol/L, 400 μM) was 0.1761 and 0.0969 and 0.0748 and the “p-Akt Ser473 / t-Akt (Fold to ADP only)” value ([1]; ADP 10 μmol/L, 400 μM) was 0.4165 Fold to ADP only and 0.2292 Fold to ADP only and 0.1768 Fold to ADP only. The “p-Akt Ser473 / t-Akt” value ([1]; ADP 10 μmol/L, 800 μM) was 0.0725 and 0.0226 and 0.0288, the “p-Akt Ser473 / t-Akt (Fold to ADP only)” value ([1]; ADP 10 μmol/L, 800 μM) was 0.1714 Fold to ADP only and 0.0534 Fold to ADP only and 0.0681 Fold to ADP only and the “p-Akt Ser473 / t-Akt” value [1, 3] was 0.5270 and 0.4157 and 0.3312. For the same molecule, the “p-Akt Ser473 / t-Akt (Fold to ADP only)” value [1, 3] was 0.6055 Fold to ADP only and 0.4777 Fold to ADP only and 0.3805 Fold to ADP only, the “phosphorylation of VASP at Ser239” value ([2]; ADP-stimulated washed platelets, 100, 200, 400, and 800 μM) was “induced the phosphorylation of VASP at Ser239” and the “p-VASP(Ser239) / GAPDH (Fold to ADP only)” value ([2]; naringenin 100 μM) was 5.3418 and 4.6396 and 5.0239. For the same molecule, the “p-VASP(Ser239) / GAPDH (raw data)” value ([2]; naringenin 100 μM) was 0.6957 and 0.6043 and 0.6543, the “p-VASP(Ser239) / GAPDH (Fold to ADP only)” value ([2]; naringenin 200 μM) was 4.4032 and 4.7219 and 3.7689 and the “p-VASP(Ser239) / GAPDH (raw data)” value ([2]; naringenin 200 μM) was 0.5735 and 0.6150 and 0.4909. The “p-VASP(Ser239) / GAPDH (Fold to ADP only)” value ([2]; naringenin 400 μM) was 4.5890 and 4.9045 and 3.3393, the “p-VASP(Ser239) / GAPDH (raw data)” value ([2]; naringenin 400 μM) was 0.5977 and 0.6388 and 0.4349 and the “p-VASP(Ser239) / GAPDH (Fold to ADP only)” value ([2]; naringenin 800 μM) was 5.3132 and 6.0564 and 4.7205. For the same molecule, the “p-VASP(Ser239) / GAPDH (raw data)” value ([2]; naringenin 800 μM) was 0.6920 and 0.7888 and 0.6148.
